From ChEMBL document CHEMBL1138957, “Discovery and SAR of 2-amino-5-(thioaryl)thiazoles as potent and selective Itk inhibitors” (Bioorg Med Chem Lett, 2006)

Legend:
Jurkat = experiment: Inhibition of IL2 production in Jurkat T cells; format: functional, cell-based; conditions: Homo sapiens
Mus musculus [1] = species: Mus musculus; experiment: Stability in mouse liver microsomes assessed as degradation rate per mg of protein; format: ADME
[2] = target: T1, Tyrosine-protein kinase ITK/TSK (Homo sapiens, UniProt Q08881); experiment: Inhibition of Itk
T1 sequence (Q08881 whole entry): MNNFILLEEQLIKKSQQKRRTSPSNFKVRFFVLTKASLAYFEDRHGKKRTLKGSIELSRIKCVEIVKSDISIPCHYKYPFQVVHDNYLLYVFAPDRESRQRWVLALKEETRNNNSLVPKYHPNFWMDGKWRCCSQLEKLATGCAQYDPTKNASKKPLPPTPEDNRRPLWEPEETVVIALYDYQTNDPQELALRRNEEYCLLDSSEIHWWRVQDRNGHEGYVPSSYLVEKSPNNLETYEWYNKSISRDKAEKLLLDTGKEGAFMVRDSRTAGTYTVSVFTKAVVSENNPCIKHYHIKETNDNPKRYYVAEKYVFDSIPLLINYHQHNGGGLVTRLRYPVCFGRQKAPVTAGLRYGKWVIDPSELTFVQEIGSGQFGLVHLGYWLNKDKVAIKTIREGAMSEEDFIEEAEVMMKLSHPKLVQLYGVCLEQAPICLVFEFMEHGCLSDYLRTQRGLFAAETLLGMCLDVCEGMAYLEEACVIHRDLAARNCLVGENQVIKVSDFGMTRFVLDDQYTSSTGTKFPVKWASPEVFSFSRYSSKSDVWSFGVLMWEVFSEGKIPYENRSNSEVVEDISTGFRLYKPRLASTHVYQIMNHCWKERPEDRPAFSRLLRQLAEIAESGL

[3] = Mean residence time in mice at 10 mg/kg, iv; format: ADME, organism-based; set-up: dose 10 mg/kg, route intravenous; conditions: mouse, in vivo
[4] = Mean residence time in mice at 20 mg/kg, po; format: ADME, organism-based; set-up: dose 20 mg/kg, route oral; conditions: mouse, in vivo
[5] = Clearance in mice at 10 mg/kg, iv; format: ADME, organism-based; set-up: dose 10 mg/kg, route intravenous; conditions: mouse, in vivo
EL4 = experiment: cells; conditions: Mus musculus
[6] = Tmax in mice at 10 mg/kg, iv; format: ADME, organism-based; set-up: dose 10 mg/kg, route intravenous; conditions: mouse, in vivo
[7] = Half life in mice at 10 mg/kg, iv; format: ADME, organism-based; set-up: dose 10 mg/kg, route intravenous; conditions: mouse, in vivo
[8] = Oral bioavailability in mice at 20 mg/kg, po; format: ADME, organism-based; conditions: mouse, in vivo
Mus musculus [9] = experiment: Inhibition of anti CD3-induced IL2 production in mice serum at 50 mg/kg, sc after 1.75 hrs; format: functional; conditions: route subcutaneous
[10] = Volume of distribution in mice at 10 mg/kg, iv; format: ADME, organism-based; set-up: dose 10 mg/kg, route intravenous; conditions: mouse, in vivo, read-out: Vss
[11] = Tmax in mice at 20 mg/kg, po; format: ADME, organism-based; set-up: dose 20 mg/kg, route oral; conditions: mouse, in vivo
[12] = target: Tyrosine-protein kinase SYK (Homo sapiens, UniProt P43405); experiment: Inhibition of Syk
[13] = Half life in mice at 20 mg/kg, po; format: ADME, organism-based; set-up: dose 20 mg/kg, route oral; conditions: mouse, in vivo
Mus musculus [14] = experiment: Inhibition of anti CD3-induced IL2 production in mice serum at 50 mg/kg, sc; format: functional; conditions: route subcutaneous
[15] = Cmax in mice at 20 mg/kg, po; format: ADME, organism-based; set-up: dose 20 mg/kg, route oral; conditions: mouse, in vivo

| SMILES | IC50 (Jurkat) [µM] | Stability (Mus musculus [1]; mouse) [nmol/min/mg] | other results |
| --- | --- | --- | --- |
| COCc1ccc(C(=O)Nc2ncc(Sc3cc(C(=O)N4CCN(C(C)=O)CC4)c(OC)cc3C)s2)cc1 | 0.42 |  |  |
| CC(=O)N1CCN(C(=O)c2cc(Sc3cnc(Nc4ccccn4)s3)ccc2O)CC1 | 2.18 |  |  |
| COc1cc(C)c(Sc2cnc(NC(=O)c3ccc(OC(C)C)cc3)s2)cc1C(=O)N1CCN(C(C)=O)CC1 | 0.36 |  |  |
| CS(=O)(=O)NC(=O)C1CCCN(C(=O)c2cc(Sc3cnc(Nc4cccc(Br)n4)s3)ccc2O)C1 (stereo not drawn) | > 10 |  | Stability (Mus musculus [1]): < 0.1 nmol/min |
| CC(=O)N1CCN(C(=O)c2cc(Sc3cnc(Nc4cccc(Br)n4)s3)ccc2O)CC1 | 0.37 | > 0.3 |  |
| COc1cc(C)c(Sc2cnc(NC(=O)c3ccc[nH]3)s2)cc1C(=O)N1CCN(C(C)=O)CC1 | 0.25 |  |  |
| CCNCc1ccc(C(=O)Nc2ncc(Sc3cc(C(=O)N4CCN(C(C)=O)CC4)c(OC)cc3C)s2)cc1 | 3.4 |  |  |
| O=C(O)C1CCCN(C(=O)c2cc(Sc3cnc(Nc4cccc(Br)n4)s3)ccc2O)C1 (stereo not drawn) | > 50 | < 0.1 |  |
| CC(=O)N1CCN(C(=O)c2cccc(Sc3cnc(Nc4cccnc4)s3)c2)CC1 |  |  | IC50 [2]: > 50 µM |
| COc1cc(C)c(Sc2cnc(NC(=O)c3ccc(CNC(C)C(C)(C)C)cc3)s2)cc1C(=O)N1CCN(C(C)=O)CC1 (stereo not drawn) |  |  | MRT [3]: 1 h; IC50 (Protein kinase C (PKC)): 24 µM; MRT [4]: 3.1 h; clearance [5]: 116 mL/min/kg; IC50 (EL4): 0.07 µM; Tmax [6]: 3 min; half-life [7]: 1.3 h; bioavailability [8]: 6.4%; Activity (Mus musculus [9]): 1.89 µM; Vd [10]: 7 L/kg; Tmax [11]: 1 h; IC50 [12]: > 50 µM; half-life [13]: 1.4 h; inhibition in vivo at 50 mg/kg (Mus musculus [14]): 50%; Cmax [15]: 69 nM |
| COc1cc(C)c(Sc2cnc(NC(=O)C3CC3)s2)cc1C(=O)N1CCN(C(=O)CN(C)C)CC1 | 0.21 | 0.1 |  |
| CC(=O)N1CCN(C(=O)c2cccc(Sc3cnc(NC(=O)c4ccc(N(C)C)cc4)s3)c2C)CC1 |  |  | IC50 [2]: > 25 µM |
| CC(=O)N1CCN(C(=O)c2cc(Sc3cnc(Nc4cc(C)cc(C)n4)s3)ccc2O)CC1 | 0.46 |  |  |
| CC(=O)N1CCN(C(=O)c2cccc(CSc3cnc(NC(=O)c4ccc(N(C)C)cc4)s3)c2)CC1 | 22 |  |  |
| COc1cc(C)c(Sc2cnc(NC(=O)C3CC3C(=O)O)s2)cc1C(=O)N1CCN(C(C)=O)CC1 (stereo not drawn) | 25.3 | < 0.1 |  |
| COc1cc(C)c(Sc2cnc(NC(=O)c3ccc(N(C)C)cc3)s2)cc1C(=O)N1CCN(C(C)=O)CC1 | 0.28 |  |  |
| COc1cc(C)c(Sc2cnc(Nc3cc(C)cc(C)n3)s2)cc1C(=O)N1CCN(C(C)=O)CC1 | 0.23 |  |  |
| CCN1CCN(C(=O)c2cc(Sc3cnc(NC(=O)C4CC4)s3)c(C)cc2OC)CC1 | 1 | > 0.3 |  |
| CC(=O)N1CCN(C(=O)c2cc(CSc3cnc(NC(=O)c4ccc(CNC(C)C(C)(C)C)cc4)s3)cc(C)c2C)CC1 (stereo not drawn) | 0.7 |  |  |
| CNCc1ccc(C(=O)Nc2ncc(Sc3cc(C(=O)N4CCOCC4)c(OC)cc3C)s2)[nH]1 | 0.26 | 0.1 |  |
| COc1cc(C)c(Sc2cnc(NC(=O)C3CC3)s2)cc1C(=O)N1CCN(C(C)=O)CC1 | 0.69 | > 0.3 |  |
| CC(=O)N1CCN(C(=O)c2cccc(Sc3cnc(Nc4ccccn4)s3)c2)CC1 | 24 |  |  |
| CN(CC(=O)O)C(=O)c1cc(Sc2cnc(Nc3cccc(Br)n3)s2)ccc1O | > 10 | < 0.1 |  |
| O=C(O)C1CCN(C(=O)c2cc(Sc3cnc(Nc4cccc(Br)n4)s3)ccc2O)CC1 | > 50 | < 0.1 |  |
